The target of the assay is T1, 5-HT transporter (Rattus norvegicus, UniProt P31652).
T1 construct: from tissue; host or cells: rat brain synaptosomes (P2 fraction) from medulla and pons
The assay is described as follows: 5-HT uptake inhibition in rat brain synaptosomes (medulla and pons), [3H]-5-HT. The format is biochemical. The source says: a) Method for Determining Noradrenalin and 5-HT Uptake Inhibition:
Synaptosomes from rat brain regions are freshly isolated for in vitro studies, as described in the publication “The isolation of nerve endings from brain” by E. G. Gray and V. P. Whittaker, J. Anatomy 96, pages 79-88, 1962. The corresponding literature description is hereby introduced as a reference and is deemed to be part of the disclosure.
The tissue (hypothalamus for the determination of noradrenalin uptake inhibition and medulla and pons for the determination of 5-HT uptake inhibition) is homogenised in ice-cooled 0.32 M sucrose (100 mg of tissue/1 mL) in a glass homogeniser with Teflon pestle using five complete up and down strokes at 840 revolutions/minute.
The homogenate is centrifuged at 4° C. for 10 minutes at 1000 g. After subsequent centrifugation at 17000 g for 55 minutes, the synaptosomes (P2 fraction) are obtained, which are resuspended in 0.32 M […] (0.5 mL/100 mg of original weight).
The particular uptake is measured in a 96-well microtitre plate. The volume is 250 μl and the incubation proceeds at room temperature (approx. 20-25° C.) under an O2 atmosphere.
The incubation time is 7.5 minutes for [^3H]-NA and 5 minutes for [^3H]-5-HT. The 96 samples are then filtered through a Unifilter GF/B® microtitre plate (Packard) and washed with 200 mL of incubated buffer using a “Brabdel MPXRI-96T Cell-Harvester”. The Unifilter GF/B plate is dried for 1 hour at 55° C. The plate is then sealed with a Back Seal® (Packard) and 35 μl of scintillation fluid are added per well (Ultima Gold®, Packard). After sealing with a top Seal® (Packard) and establishing an equilibrium (around 5 hours), radioactivity is determined in a “Trilux 1450 Microbeta” (Wallac).
The quantity of protein used in the above determination corresponds to the values known from the literature, as for example described in “Protein measurement with the folin phenol reagent”, Lowry et al., J. Biol. Chem., 193, 265-275, 1951.
A detailed description of the method may additionally be found in the literature, for example in M. Ch. Frink, H.-H. Hennies, W. Engelberger, M. Haurand and B. Wilffert (1996) Arzneim.-Forsch./Drug Res. 46 (III), 11, 1029-1036.

Usually inhibition stands for the percentage by which the read-out fell short of the control. High values mean a strong effect, low ones a weak effect.

T1 sequence (P31652 whole entry): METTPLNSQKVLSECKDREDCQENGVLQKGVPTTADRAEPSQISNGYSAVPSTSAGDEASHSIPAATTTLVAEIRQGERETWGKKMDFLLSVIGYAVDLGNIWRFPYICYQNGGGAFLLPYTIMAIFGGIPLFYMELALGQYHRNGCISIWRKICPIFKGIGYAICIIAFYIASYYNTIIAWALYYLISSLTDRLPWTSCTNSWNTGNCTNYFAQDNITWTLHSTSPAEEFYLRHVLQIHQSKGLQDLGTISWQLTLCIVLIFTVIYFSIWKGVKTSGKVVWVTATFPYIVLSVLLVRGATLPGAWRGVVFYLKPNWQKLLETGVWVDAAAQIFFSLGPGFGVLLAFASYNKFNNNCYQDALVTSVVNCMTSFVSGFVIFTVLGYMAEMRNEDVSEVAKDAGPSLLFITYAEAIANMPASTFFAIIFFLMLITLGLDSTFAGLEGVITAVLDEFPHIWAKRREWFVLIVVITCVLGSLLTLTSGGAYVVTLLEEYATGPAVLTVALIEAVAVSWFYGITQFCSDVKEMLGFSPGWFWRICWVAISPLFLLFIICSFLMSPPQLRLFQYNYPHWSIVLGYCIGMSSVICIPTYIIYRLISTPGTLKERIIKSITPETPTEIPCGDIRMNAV

The compound `Cc1cc(C)cc(CN2CC3(CCN(C(=O)c4ccno4)CC3)OC2=O)c1` [Example 128, 3-(3,5-dimethylbenzyl)-8-(isoxazole-5-carbonyl)-1-oxa-3,8-diazaspiro[4.5]decan-2-one] gave an inhibition at 10 µM of 62%.

With `CCSc1ncccc1C(=O)N1CCC2(CC1)CN(Cc1cc(C)cc(C)c1)C(=O)O2` [Example 99, 3-(3,5-dimethylbenzyl)-8-(2-ethylsulfanylpyridine-3-carbonyl)-1-oxa-3,8-diazaspiro[4.5]decan-2-one], the inhibition at 10 µM was found to be 73%.

`CC(CC(=O)O)CC(=O)N1CCC2(CC1)CN(Cc1ccccc1-c1ccccc1)C(=O)O2` (centres unmarked) [Example 73, 5-(3-biphenyl-2-ylmethyl-2-oxo-1-oxa-3,8-diazaspiro[4.5]dec-8-yl)-3-methyl-5-oxopentanoic acid] gave an inhibition at 10 µM of 57%.

`Cc1ccc(CN2CC3(CCN(C(=O)NCCc4ccccc4)CC3)OC2=O)cc1` [Example 45, 3-(4-methylbenzyl)-2-oxo-1-oxa-3,8-diazaspiro[4.5]decane-8-carboxylic acid phenethylamide] showed an inhibition at 10 µM of 51%.

Consider `Cc1ccc(CS(=O)(=O)NC(Cc2ccccc2)C(=O)N2CCC3(CC2)CN(Cc2cccc(C#N)c2)C(=O)O3)cc1` (centres unmarked) [Example 110, N-{1-benzyl-2-[3-(3-cyanobenzyl)-2-oxo-1-oxa-3,8-diazaspiro[4.5]dec-8-yl]-2-oxoethyl}-4-methylbenzylsulfonamide], for which testing at 10 µM gave an inhibition of 64%.

In turn, `CC(NC(=S)N1CCC2(CC1)CN(Cc1ccccc1-c1ccccc1)C(=O)O2)c1ccccc1` (centres unmarked) [Example 12, 3-biphenyl-2-ylmethyl-2-oxo-1-oxa-3,8-diazaspiro[4.5]decane-8-carbothioic acid (1-phenylethyl)amide] returned an inhibition at 10 µM of 60%.

Regarding `COc1ccc(Cl)cc1NC(=O)N1CCC2(CC1)CN(Cc1ccc(C#N)cc1)C(=O)O2` [Example 58, 3-(4-cyanobenzyl)-2-oxo-1-oxa-3,8-diazaspiro[4.5]decane-8-carboxylic acid (5-chloro-2-methoxyphenyl)amide], the inhibition at 10 µM is 49%.

The compound `O=C(O)CC1(CC(=O)N2CCC3(CC2)CN(Cc2ccc(F)c(F)c2)C(=O)O3)CCCC1` [Example 72, (1-{2-[3-(3,4-difluorobenzyl)-2-oxo-1-oxa-3,8-diazaspiro[4.5]dec-8-yl]-2-oxoethyl}cyclopentyl)acetic acid] gave an inhibition at 10 µM of 45%.

`CCC(CC)C(=O)N1CCC2(CC1)CN(Cc1cccc(C#N)c1)C(=O)O2` [Example 134, 3-[8-(2-ethylbutyryl)-2-oxo-1-oxa-3,8-diazaspiro[4.5]dec-3-ylmethyl]benzonitrile] showed an inhibition at 10 µM of 64%.

As to `N#Cc1cccc(CN2CC3(CCN(S(=O)(=O)Cc4cccc(Br)c4)CC3)OC2=O)c1` [Example 135, 3-[8-(3-bromobenzylsulfonyl)-2-oxo-1-oxa-3,8-diazaspiro[4.5]dec-3-ylmethyl]benzonitrile], the inhibition at 10 µM turned out to be 69%.

The compound `O=C1OC2(CCN(C(=O)c3ccccn3)CC2)CN1Cc1cccc(Br)c1` [Example 129, 3-(3-bromobenzyl)-8-(pyridine-2-carbonyl)-1-oxa-3,8-diazaspiro[4.5]decan-2-one] had an inhibition at 10 µM of 77%.

For `COc1ccc([N+](=O)[O-])cc1CN1CC2(CCN(C(=O)Nc3cc(F)ccc3F)CC2)OC1=O` [Example 26, 3-(2-methoxy-5-nitrobenzyl)-2-oxo-1-oxa-3,8-diazaspiro[4.5]decane-8-carboxylic acid (2,5-difluorophenyl)amide], the inhibition at 10 µM came out at 70%.

As for `Cc1cc(C)cc(CN2CC3(CCN(C(=O)c4cccc(Cl)c4)CC3)OC2=O)c1` [Example 126, 8-(3-chlorobenzoyl)-3-(3,5-dimethylbenzyl)-1-oxa-3,8-diazaspiro[4.5]decan-2-one], the inhibition at 10 µM is 64%.

The compound `COc1ccc([N+](=O)[O-])cc1CN1CC2(CCN(C(=O)c3cc(C(C)(C)C)oc3C)CC2)OC1=O` [Example 125, 8-(5-tert-butyl-2-methylfuran-3-carbonyl)-3-(2-methoxy-5-nitrobenzyl)-1-oxa-3,8-diazaspiro[4.5]decan-2-one] had an inhibition at 10 µM of 63%.

`COc1ccc([N+](=O)[O-])cc1CN1CC2(CCN(CC(=O)Nc3cc(C)nn3C)CC2)OC1=O` [Example 76, N-(2,5-dimethyl-2H-pyrazol-3-yl)-2-[3-(2-methoxy-5-nitrobenzyl)-2-oxo-1-oxa-3,8-diazaspiro[4.5]dec-8-yl]acetamide]: the inhibition at 10 µM was determined as 51%.

Regarding `CCSc1ncccc1C(=O)N1CCC2(CC1)CN(Cc1ccccc1C(F)(F)F)C(=O)O2` [Example 127, 8-(2-ethylsulfanylpyridine-3-carbonyl)-3-(2-trifluoromethylbenzyl)-1-oxa-3,8-diazaspiro[4.5]decan-2-one], the inhibition at 10 µM turned out to be 63%.

In the case of `Cc1cc(C(=O)N2CCC3(CC2)CN(Cc2cccc(C#N)c2)C(=O)O3)ccc1Br` [Example 147, 3-[8-(4-bromo-3-methylbenzoyl)-2-oxo-1-oxa-3,8-diazaspiro[4.5]dec-3-ylmethyl]benzonitrile], the inhibition at 10 µM turned out to be 73%.

Compound `O=C1OC2(CCN(C(=O)c3c(Cl)cccc3Cl)CC2)CN1Cc1ccccc1F` [Example 139, 8-(2,6-dichlorobenzoyl)-3-(2-fluorobenzyl)-1-oxa-3,8-diazaspiro[4.5]decan-2-one] registered an inhibition at 10 µM of 70%.

For `CCCCOc1ccc(NC(=O)N2CCC3(CC2)CN(Cc2ccc(I)cc2)C(=O)O3)cc1` [Example 41, 3-(4-iodobenzyl)-2-oxo-1-oxa-3,8-diazaspiro[4.5]decane-8-carboxylic acid (4-butoxyphenyl)amide], testing at 10 µM gave an inhibition of 49%.

Regarding `Cc1cc(C)cc(CN2CC3(CCN(C(=O)c4ccccc4Cl)CC3)OC2=O)c1` [Example 108, 8-(2-chlorobenzoyl)-3-(3,5-dimethylbenzyl)-1-oxa-3,8-diazaspiro[4.5]decan-2-one], the inhibition at 10 µM turned out to be 77%.

In the case of `CC(C)(C)OC(=O)NC(Cc1c[nH]c2ccccc12)C(=O)N1CCC2(CC1)CN(Cc1cccc(Br)c1)C(=O)O2` (centres unmarked) [Example 66, [2-[3-(3-bromobenzyl)-2-oxo-1-oxa-3,8-diazaspiro[4.5]dec-8-yl]-1-(1H-indol-3-ylmethyl)-2-oxoethyl]carbamic acid tert-butyl ester], the inhibition at 10 µM amounted to 53%.

The compound `COc1cccc(NC(=O)N2CCC3(CC2)CN(Cc2ccccc2C(F)(F)F)C(=O)O3)c1` [Example 46, 2-oxo-3-(2-trifluoromethylbenzyl)-1-oxa-3,8-diazaspiro[4.5]decane-8-carboxylic acid (3-methoxyphenyl)amide] had an inhibition at 10 µM of 43%.

For `COc1ccc(OC)c(CS(=O)(=O)N2CCC3(CC2)CN(Cc2cc(C)cc(C)c2)C(=O)O3)c1` [Example 107, 8-(2,5-dimethoxybenzylsulfonyl)-3-(3,5-dimethylbenzyl)-1-oxa-3,8-diazaspiro[4.5]decan-2-one], the inhibition at 10 µM is 76%.

Take `Cc1ccc(NC(=O)N2CCC3(CC2)CN(Cc2ccc(I)cc2)C(=O)O3)cc1[N+](=O)[O-]` [Example 50, 3-(4-iodobenzyl)-2-oxo-1-oxa-3,8-diazaspiro[4.5]decane-8-carboxylic acid (4-methyl-3-nitrophenyl)amide]: the inhibition at 10 µM was found to be 64%.

With `CC(NC(=O)N1CCC2(CC1)CN(Cc1ccccc1)C(=O)O2)c1ccccc1` (centres unmarked) [Example 43, 3-benzyl-2-oxo-1-oxa-3,8-diazaspiro[4.5]decane-8-carboxylic acid (1-phenylethyl)amide], the inhibition at 10 µM worked out at 49%.

In turn, `Cc1cc(C)cc(CN2CC3(CCN(C(=S)NCC4CCCO4)CC3)OC2=O)c1` (centres unmarked) [Example 4, 3-(3,5-dimethylbenzyl)-2-oxo-1-oxa-3,8-diazaspiro[4.5]decane-8-carbothioic acid (tetrahydrofuran-2-ylmethyl)amide] returned an inhibition at 10 µM of 76%.

`CCCCOc1ccc(CS(=O)(=O)N2CCC3(CC2)CN(Cc2cc(C)cc(C)c2)C(=O)O3)cc1` [Example 103, 8-(4-butoxybenzylsulfonyl)-3-(3,5-dimethylbenzyl)-1-oxa-3,8-diazaspiro[4.5]decan-2-one] returned an inhibition at 10 µM of 83%.

`COc1ccc([N+](=O)[O-])cc1CN1CC2(CCN(C(=O)Nc3cccc(C#N)c3)CC2)OC1=O` [Example 51, 3-(2-methoxy-5-nitrobenzyl)-2-oxo-1-oxa-3,8-diazaspiro[4.5]decane-8-carboxylic acid (3-cyanophenyl)amide] showed an inhibition at 10 µM of 89%.

`COc1cccc(CC(=O)N2CCC3(CC2)CN(Cc2cc([N+](=O)[O-])ccc2OC)C(=O)O3)c1` [Example 145, 3-(2-methoxy-5-nitrobenzyl)-8-[2-(3-methoxyphenyl)acetyl]-1-oxa-3,8-diazaspiro[4.5]decan-2-one]: 10 µM produced 77% inhibition.

These data come from patent US8153795B2, “Substituted 1-oxa-3,8-diazaspiro[4.5]-decan-2-one-compounds and the use thereof for producing drugs” (Gruenenthal GmbH, priority 2005, dated 2012).
